Data reported in PubChem BioAssay (NCI).
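Test compounds were applied to cells in 96-well plates for 48 hours at 5 doses. TGI marks complete inhibition of growth.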

Assays:
Assay in all cases: inhibition of tumour cell growth, NCI panel, 48 h
ACHN renal = test system: ACHN renal
OVCAR-3 ovarian = test system: OVCAR-3 ovarian
KM12 colon = test system: KM12 colon
HS 578T breast = test system: HS 578T breast
K-562 leukemia = test system: K-562 leukemia
SF-539 CNS = test system: SF-539 CNS
SF-295 CNS = test system: SF-295 CNS
EKVX NSCLC = test system: EKVX NSCLC
UO-31 renal = test system: UO-31 renal
BT-549 breast = test system: BT-549 breast
HOP-92 NSCLC = test system: HOP-92 NSCLC
T-47D breast = test system: T-47D breast

## FC(F)(F)c1cc(N(C2c3ccccc3C=Cc3ccccc32)P(Cl)Cl)cc(C(F)(F)F)c1
ACHN renal
  TGI: 33.9 µM
OVCAR-3 ovarian
  TGI: 31.1 µM
KM12 colon
  TGI: 49.4 µM
HS 578T breast
  TGI: 79.5 µM
K-562 leukemia
  TGI: 42.7 µM
SF-539 CNS
  TGI: 66.6 µM
SF-295 CNS
  TGI: 41.8 µM
EKVX NSCLC
  TGI: 38.6 µM
UO-31 renal
  TGI: 33.4 µM
BT-549 breast
  TGI: 23 µM
HOP-92 NSCLC
  TGI: 30.4 µM
T-47D breast
  TGI: 56.4 µM

## O[C@@H]1C=C[C@]23CCN(Cc4cc5c(cc42)OCO5)[C@@H]3C1
ACHN renal
  TGI: > 100 µM
OVCAR-3 ovarian
  TGI: > 100 µM
KM12 colon
  TGI: > 100 µM
HS 578T breast
  TGI: > 100 µM
K-562 leukemia
  TGI: > 100 µM
SF-539 CNS
  TGI: > 100 µM
SF-295 CNS
  TGI: > 100 µM
EKVX NSCLC
  TGI: > 100 µM
UO-31 renal
  TGI: > 100 µM
BT-549 breast
  TGI: > 100 µM
HOP-92 NSCLC
  TGI: > 100 µM
T-47D breast
  TGI: > 100 µM

## O=C(c1ccccc1)c1ccc2nc(-c3c(Cl)c(Cl)c(Cl)c(Cl)c3-c3nnc(-c4ccccc4)o3)[nH]c2c1
ACHN renal
  TGI: > 100 µM
OVCAR-3 ovarian
  TGI: > 100 µM
KM12 colon
  TGI: > 100 µM
HS 578T breast
  TGI: > 100 µM
K-562 leukemia
  TGI: > 100 µM
SF-539 CNS
  TGI: > 100 µM
SF-295 CNS
  TGI: 73.9 µM
EKVX NSCLC
  TGI: > 100 µM
UO-31 renal
  TGI: > 100 µM
BT-549 breast
  TGI: > 100 µM
HOP-92 NSCLC
  TGI: > 100 µM
T-47D breast
  TGI: > 100 µM

## Cc1cn(C2CCC(CO)(CF)O2)c(=O)[nH]c1=O (stereo not given)
ACHN renal
  TGI: > 100 µM
OVCAR-3 ovarian
  TGI: > 100 µM
KM12 colon
  TGI: > 100 µM
HS 578T breast
  TGI: > 100 µM
K-562 leukemia
  TGI: > 100 µM
SF-539 CNS
  TGI: > 100 µM
SF-295 CNS
  TGI: > 100 µM
EKVX NSCLC
  TGI: > 100 µM
UO-31 renal
  TGI: > 100 µM
BT-549 breast
  TGI: > 100 µM
HOP-92 NSCLC
  TGI: > 100 µM
T-47D breast
  TGI: > 100 µM

## CN1/C(=C/C=C/C=C/C=C2C(=O)c3ccccc3C2=O)C(C)(C)c2ccccc21
ACHN renal
  TGI: > 100 µM
OVCAR-3 ovarian
  TGI: > 100 µM
KM12 colon
  TGI: > 100 µM
HS 578T breast
  TGI: > 100 µM
K-562 leukemia
  TGI: > 100 µM
SF-539 CNS
  TGI: 91.3 µM
SF-295 CNS
  TGI: > 100 µM
EKVX NSCLC
  TGI: > 100 µM
UO-31 renal
  TGI: > 100 µM
BT-549 breast
  TGI: 81 µM
HOP-92 NSCLC
  TGI: 58 µM
T-47D breast
  TGI: > 100 µM
